Source: patent US12569508B2, “Antimicrobial compositions and methods of use” (priority 2020, dated 2026)

What was measured:
in vitro = in vitro ADME; conditions: human
Procedure: The barrier integrity of the CFBE41o− cell line cultured on the Transwell® supports was determined by both TEER (Srinivasan B et aL, 2015, Journal of Laboratory Automation, 20(2): 107-126) and sodium fluorescein transport (Molenda N et al., 2014, PLOS ONE, 9(6): p. e100621). Due to the variation in TEER measurements, sodium fluorescein transport provided a direct measurement of the tight junctions. On day 7 (4 days after cells are transferred to ALI), cells were incubated basolaterally with 1.7 mL KRB buffer and apically with 520 μL of 10 μg/mL sodium fluorescein (in KRB) with or without 16 mM ethylenediaminetetraacetic acid (EDTA). EDTA disrupts the tight junctions of a cell barrier. At 30-minute intervals, 20 μL samples were taken from the basolateral compartment and replaced with fresh KRB. […] The samples were then measured and compared to a standard curve via fluorescent spectroscopy (Tecan® plate reader, Tecan Deutschland GmbH, Germany) at excitation and emission wavelengths of […], respectively. […]
After TOB treatments were nebulised, at 5, 15, 30, 60, 120, 240 and 1440 minutes, 100 μL sample was taken from the basolateral compartment and replaced with fresh MEM media. The sample was then filtered through 4 mm Millex® syringe filters before LC-MS/MS analysis, as described above, to quantify the transport of TOB.

CFBE41o− = assay type: cell-based, human
Procedure: Cell viability was assessed through taking the contents of the basolateral compartment media and reacting it with a Cytotoxicity Detection Kit (LDH) (Roche) to determine the amount of LDH released. 200 μL of the basolateral media was taken and centrifuged at 300×g for 10 mins. 100 μL of the supernatant was mixed with 100 μL of the reaction solution, as per manufacturer's instructions. LDH release was measured after 5-minute incubation at room temperature using a plate reader at an absorbance of 492 nm.

P. aeruginosa (PAO1) = assay: C. elegans PAO1 infection model; assay type: in vivo, Caenorhabditis elegans
Procedure: For the infection study, an overnight culture of P. aeruginosa (PAO1) was diluted to an OD of 0.1 and 200 μL was seeded onto NGM (50 mM NaCl and 0.35% peptone) agar plates for 12 h at 37° C. After 12 h, the collected L4 stage nematodes were incubated on PAO1 seeded agar plates and allowed to feed on the bacteria for 6 h at 25° C. (Uccelletti D et al., 2010, Antimicrobial Agents and Chemotherapy 54(9), 3853-3860). Thereafter, the nematodes were removed from the agar and washed multiple times to remove PAO1 from the outside and the nematodes were split into groups of 20 in OGM medium. Besides the non-treated control, the infected nematodes were treated with various concentrations of tobramycin as an unformulated solution or loaded in MO-LCNPs.
In both the healthy and infected nematodes study, nematodes were assessed as live or dead under a bright field microscopy through either being curled and moving (live) or stiff and non-moving (dead) at 4 h, 24 h and 48 h post treatment. The percentage of live nematodes to the total number of nematodes in the samples was compared to healthy, non-treated controls to compute the % survival.
Following 24 h and 48 h, samples of the nematodes were taken and washed with M9 buffer containing 1 mM sodium azide and then 0.01 M PBS before being counted. The nematodes were then mechanically disrupted via vortex mixing in tubes with 200 mg of 1.0 mm silicon carbide beads (BioSpec Products, Bartleville, OK) for 10 mins (Richter K et al. 2017, Frontiers in Cellular and Infection Microbiology, 7: Article 280). The disrupted nematodes and bacterial suspensions were serial diluted and spot plated on Pseudomonas isolation agar for colony forming units (CFU) counting to determine the CFU per nematode.

[1] = test system: 6 mm full-thickness wound infected with P. aeruginosa; assay: Chronic full-thickness wound infection model: macroscopic and microscopic wound healing; assay type: in vivo, Balb/c mice
Procedure: Following the same procedure as above, male and female mice were wounded with a 6 mm circular full-thickness wound under anaesthesia and pain relief. […] Treatments were repeated every 24 h for three days and monitored for the bacterial burden and digital photographs. On day six, mice were sacrificed as described above. Digital photographs of the wounds that were taken daily (day zero to six) were used for the macroscopic assessment of healing using ImageJ software. The images were calibrated to a ruler to measure the wounds length, gape and surface area, as previously described (Abbott C A et al., 2013, supra). The microscopic analysis was completed with histology assessments. Following overnight fixation in 4% (v/v) formaldehyde, collected wound halves were routinely processed into paraffin, and 4 μm thick sections were cut using a semi-automated rotary microtome (HistoCore MultiCut, Leica Biosystems, Melbourne, Australia). The sections were stained for haematoxylin and eosin using established protocols (Kopecki, Z., et al., 2009, supra). Following, all sections were imaged via […] slide scanner, Hamamatsu Photonics, Japan) and analysed using NDP.view2 Viewing software (Hamamatsu Photonics, Japan) to microscopically assess the healing via measurement of wound length, gape and percentage of wound re-epithelisation following previously used protocols ([…]., et al., 2021, supra).

[2] = aerosolised, CF patients; cited from earlier work

## NC[C@H]1O[C@H](O[C@H]2[C@H](O)[C@@H](O[C@H]3O[C@H](CO)[C@@H](O)[C@H](N)[C@H]3O)[C@H](N)C[C@@H]2N)[C@H](N)C[C@@H]1O [unformulated TOB, tobramycin]
In vitro
  Papp at 1440 min: 0.81 ×10⁻⁶ cm/s
CFBE41o−
  epithelium cell monolayer viability: maintained the epithelium cell monolayer viability
CFBE41o−; human, 24 h
  cell viability of the epithelium monolayer: above 80%
P. aeruginosa (PAO1); 24 h, 3 μg/mL
  survival of infected nematodes: 13%
P. aeruginosa (PAO1); 24 h, 6 μg/mL
  survival of infected nematodes: 65%
P. aeruginosa (PAO1); 24 h, 15 μg/mL
  survival of infected nematodes: 83%
P. aeruginosa (PAO1); 24 h, 15 μg/mL and 60 μg/mL
  bacteria killed compared to control: 1 log
P. aeruginosa (PAO1); 24 h, 60 μg/mL
  survival of infected nematodes: 87%
P. aeruginosa (PAO1); 48 h
  PAO1 infection level: ~4 log
P. aeruginosa (PAO1); 48 h, 3 μg/mL
  survival of infected nematodes: 7%
P. aeruginosa (PAO1); 48 h, 60 μg/mL
  PAO1 surviving: 2 log
P. aeruginosa (PAO1); 48 h, 6-60 μg/mL
  average survival of infected nematodes: 65%
[1]; day five
  macroscopic dermal gape: 88±11%
[1]; day five, after two doses
  macroscopic wound area (of the original wound): 66±13%
[1]; day six
  dermal gape (histology): 5.2±0.8 mm
  macroscopic dermal gape: 77±10%
[1]; day six, after three doses
  macroscopic wound area (of the original wound): 75±18%
  wound length (histology): 7.6±0.9 mm
[1]; day six, histology
  wound reepithelization: 41±8%
[2]
  bioavailability: 9.13%
